Common to all, as to assay: microbe, parasite or virus in culture
What all share (assay type): cell-based, Pseudomonas aeruginosa

Test [1] has as its system MDR P. aeruginosa PA 910. Put shortly: (§1)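 Clinical and municipal waste-water MDR isolates were tested by broth microdilution in Mueller-Hinton broth with twofold serial dilutions at 2–5 10^5 CFU/ml. Plates were incubated 18 h at 37°C in polypropylene plates. MIC was read visually.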
Test [2] relates to MDR P. aeruginosa PA253. The settings on record: conventional antibiotics, microdilution, Mueller-Hinton broth, 2–5 10^5 CFU/ml, 18 h at 37°C, read visually, at least three repeats (n = 3). The method in brief:
as §1
Background: Broth dilution looks for growth in wells or tubes with falling amounts of substance.

Test [3] deals with MDR P. aeruginosa PA 915. Conditions: conventional antibiotics, microdilution, Mueller-Hinton broth, 2–5 10^5 CFU/ml, 18 h at 37°C, read visually, at least three repeats (n = 3). Put shortly: as §1
Test [4] concerns MDR P. aeruginosa PA 923. Conditions: conventional antibiotics, microdilution, Mueller-Hinton broth, 2–5 10^5 CFU/ml, 18 h at 37°C, read visually, at least three repeats (n = 3). Put shortly:
as §1

Test [5] has as its system P. aeruginosa PA01-wt. The settings on record: conventional antibiotics, microdilution, Mueller-Hinton broth, 2–5 10^5 CFU/ml, 18 h at 37°C, read visually, at least three repeats (n = 3).
Test [6] relates to MDR P. aeruginosa PA 927. The settings on record: conventional antibiotics, microdilution, Mueller-Hinton broth, 2–5 10^5 CFU/ml, 18 h at 37°C, read visually, at least three repeats (n = 3). The method in brief: as §1
The subject of test [7] is MDR P. aeruginosa PA 919. The settings on record: conventional antibiotics, microdilution, Mueller-Hinton broth, 2–5 10^5 CFU/ml, 18 h at 37°C, read visually, at least three repeats (n = 3). The method in brief: as §1
[8] abbreviates: Pseudomonas aeruginosa, 18 h, antibiotic alone, as listed in the FIC table, read-out: MIC against PA910 in μM (antibiotics, head of Table 4).
[9] abbreviates: Pseudomonas aeruginosa, conventional antibiotics, microdilution, Mueller-Hinton broth, 2–5 10^5 CFU/ml, 18 h at 37°C, read visually, at least three repeats (n = 3), read-out: MIC PA 910.

Converted amounts (≈) assume the structure as drawn. Like-named read-outs stand apart in the source and are kept apart here. Bridge positions count the residues as written; N and C are the ends. Square brackets hold non-standard residues; d marks the D form. Peptide text beside a SMILES is read from it. * marks the point of attachment. X1 = CC[C@H](C)CCCCC(=O)*; Dab = NCC[C@H](N)C(=O)O

For `CCN1CCN(C(=O)N[C@@H](C(=O)N[C@@H]2C(=O)N3[C@@H]2SC(C)(C)[C@@H]3C(=O)O)c2ccccc2)C(=O)C1=O` [Piperacillin], the MIC in test [1] (setting [8]) was 64 to 128 µM; in test [1] (setting [9]), 64 to 128 µM (≈ 33.1 to 66.2 µg/mL); in test [2] (Pseudomonas aeruginosa), greater than 256 µM; in test [3] (Pseudomonas aeruginosa) it was greater than 256 µM; in test [4] (Pseudomonas aeruginosa), 128 µM (≈ 66.2 µg/mL); in test [5] (Pseudomonas aeruginosa, PA01WT) it was 4 µM (≈ 2.07 µg/mL). Also, the values for the MIC in test [6] (Pseudomonas aeruginosa) and in test [7] (Pseudomonas aeruginosa) were 256 µM (≈ 132 µg/mL) and 64 µM (≈ 33.1 µg/mL), respectively.
For `CC[C@H](C)CCCCC(=O)N[C@@H](CCN)C(=O)N[C@H](C(=O)N[C@@H](CCN)C(=O)N[C@H]1CCNC(=O)[C@H]([C@@H](C)O)NC(=O)[C@H](CCN)NC(=O)[C@H](CCN)NC(=O)[C@H](CC(C)C)NC(=O)[C@@H](Cc2ccccc2)NC(=O)[C@H](CCN)NC1=O)[C@@H](C)O` [Polymyxin B] (X1-[Dab]T[Dab][Dab][Dab][dF]L[Dab][Dab]T; lactam 4-C (inferred); N-terminus assumed), the MIC is 0.13 µM in test [1] (antibiotic alone, as listed in the FIC table, read-out: MIC against PA910 in μM (antibiotics, head of Table 4)); 0.125 µM (≈ 0.15 µg/mL) in test [1] (conventional antibiotics, microdilution, Mueller-Hinton broth, 2–5 10^5 CFU/ml, 18 h at 37°C, read visually, at least three repeats (n = 3), read-out: MIC PA 910); 0.125 µM (≈ 0.15 µg/mL) in test [2]; 0.25 µM (≈ 0.301 µg/mL) in test [3]; 0.25 µM (≈ 0.301 µg/mL) in test [4]; 0.125 µM (≈ 0.15 µg/mL) in test [5]. For the same molecule, the MIC is listed as 0.25 µM (≈ 0.301 µg/mL) in test [6] and 0.125 µM (≈ 0.15 µg/mL) in test [7].
On to `CN(C)[C@@H]1C(O)=C(C(N)=O)C(=O)[C@@]2(O)C(O)=C3C(=O)c4c(O)cccc4[C@@](C)(O)[C@H]3C[C@@H]12` [Tetracyclin], for which the MIC in test [1] (setting [8]) is 64 µM; in test [1] (setting [9]), 64 µM (≈ 28.4 µg/mL); in test [2] (Pseudomonas aeruginosa) it was 32 µM (≈ 14.2 µg/mL); in test [3] (Pseudomonas aeruginosa), 16 µM (≈ 7.11 µg/mL); in test [4] (Pseudomonas aeruginosa), greater than 512 µM; in test [5] (Pseudomonas aeruginosa, PA01WT), 8 µM (≈ 3.56 µg/mL). Further, the values for the MIC in test [6] (Pseudomonas aeruginosa) and in test [7] (Pseudomonas aeruginosa) were 16 µM (≈ 7.11 µg/mL) and 32 µM (≈ 14.2 µg/mL), respectively.
As for `NC[C@H]1O[C@H](O[C@H]2[C@H](O)[C@@H](O[C@H]3O[C@H](CO)[C@@H](O)[C@H](N)[C@H]3O)[C@H](N)C[C@@H]2N)[C@H](N)C[C@@H]1O` [Tobramycin], the MIC is 32 µM in test [1] (setting [8]); 32 µM (≈ 15 µg/mL) in test [1] (setting [9]); 64 µM (≈ 29.9 µg/mL) in test [2] (Pseudomonas aeruginosa); 64 µM (≈ 29.9 µg/mL) in test [3] (Pseudomonas aeruginosa); 32 µM (≈ 15 µg/mL) in test [4] (Pseudomonas aeruginosa); 0.25 to 0.5 µM (≈ 0.117 to 0.234 µg/mL) in test [5] (Pseudomonas aeruginosa, PA01WT). Moreover, the MIC in test [6] (Pseudomonas aeruginosa) turned out to be 32 µM (≈ 15 µg/mL); in test [7] (Pseudomonas aeruginosa) it was 64 µM (≈ 29.9 µg/mL).
Kanamycin: in test [1] (antibiotic alone, as listed in the FIC table), the “MIC against PA910 in μM (antibiotics, head of Table 4)” value lay within 128 to 256 µM. In addition, the “MIC PA 910” value in test [1] (conventional antibiotics, microdilution, Mueller-Hinton broth, 2–5 10^5 CFU/ml, 18 h at 37°C, read visually, at least three repeats (n = 3)) lay in the range of 128 to 256 µM. The MIC in test [2] is greater than 512 µM; in test [4], 256 µM; in test [5] it was 64 µM; in test [6], 128 µM; in test [7] it was 128 µM. For the same molecule, in test [3], the “MIC PA 915” value fell in the range of 256 to 512 µM.

(Values after article PMC6901909, “Synergy Pattern of Short Cationic Antimicrobial Peptides Against Multidrug-Resistant Pseudomonas aeruginosa” (Frontiers in Microbiology, 2019).)
